In the experiment the target is T1, 11β-HSD1 (Homo sapiens, UniProt P28845).
T1 construct: detecting cortisol generated from cortisterone by human liver microsomes; from tissue; host or cells: human liver microsomes
As to the kind of experiment: In vitro inhibition of 11β-HSD1, HTRF detection of cortisol generated from cortisone by human liver microsomes. The class given is biochemical. The following applies: 11β-HSD IC50 (nM), 1 hour at 37° C., pH 6.0, NADPH 200 μM, cortisone 80 nM, inhibition relative to carbenoxolone signal. The method, then: Cortisol generated in the reaction is then detected with a competitive immunoassay, involving two HTRF conjugates: cortisol linked to XL665 and anti-cortisol antibody labeled with Europium cryptate. The incubation period for detection reaction was typically 2 hours. […] The ratio of the two emission signals is then calculated (Em665*10000/Em615). […] Each assay also contained a calibration curve with cortisol to transform the fluorescent data into cortisol concentrations. Percent inhibition of each compound was determined relative to the carbenoxolone signal and IC50 curves were generated.

T1 sequence (P28845 whole entry): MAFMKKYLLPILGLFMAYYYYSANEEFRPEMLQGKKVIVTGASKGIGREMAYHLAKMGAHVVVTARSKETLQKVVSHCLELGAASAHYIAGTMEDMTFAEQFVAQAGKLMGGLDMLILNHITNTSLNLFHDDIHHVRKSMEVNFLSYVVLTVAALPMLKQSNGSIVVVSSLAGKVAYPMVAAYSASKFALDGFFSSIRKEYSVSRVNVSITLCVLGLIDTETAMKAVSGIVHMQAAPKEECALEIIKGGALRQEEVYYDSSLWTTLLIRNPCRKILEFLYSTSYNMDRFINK

The term IC50 denotes the concentration needed to halve the response being measured. `CC1(C)[C@H]2Cc3c(O)cccc3[C@]1(C)CCN2C(=O)c1cccc(C(N)=O)c1` [Example 41, 3-[(2R,6S)-10-Hydroxy-6,11,11-trimethyl-1,2,5,6-tetrahydro-4H-2,6-methano-benzo[d]azocine-3-carbonyl]-benzamide] gave an IC50 of 589 nM.
The figure for `COC(=O)c1cc(Cl)cc(C(=O)N2CC[C@@]3(C)c4cccc(O)c4C[C@@H]2C3(C)C)c1` [Example 42, 3-Chloro-5-[(2R,6S)-10-hydroxy-6,11,11-trimethyl-1,2,5,6-tetrahydro-4H-2,6-methano-benzo[d]azocine-3-carbonyl]-benzoic acid methyl ester] is 4530 nM; for `COC(=O)c1cc(F)cc(C(=O)N2CC[C@@]3(C)c4cccc(O)c4C[C@@H]2C3(C)C)c1` [Example 43, 3-Fluoro-5-[(2R,6S)-10-hydroxy-6,11,11-trimethyl-1,2,5,6-tetrahydro-4H-2,6-methano-benzo[d]azocine-3-carbonyl]-benzoic acid methyl ester] it is 1760 nM; for `CC1(C)[C@H]2Cc3c(O)cccc3[C@]1(C)CCN2C(=O)c1ccc2c(c1)NCC(=O)N2` [Example 44, 6-[(2R,6S)-10-Hydroxy-6,11,11-trimethyl-1,2,5,6-tetrahydro-4H-2,6-methano-benzo[d]azocine-3-carbonyl]-3,4-dihydro-1H-quinoxalin-2-one] it is 200 nM.
`CC1(C)[C@H]2Cc3c(O)cccc3[C@]1(C)CCN2C(=O)c1ccc2scnc2c1` [Example 45, Benzothiazol-5-yl-[(2R,6S)-10-hydroxy-6,11,11-trimethyl-1,2,5,6-tetrahydro-4H-2,6-methano-benzo[d]azocin-3-yl]-methanone] registered an IC50 of 384 nM.
`CC1(C)[C@H]2Cc3c(O)cccc3[C@]1(C)CCN2C(=O)c1ccc2ncsc2c1` [Example 46, Benzothiazol-6-yl-[(2R,6S)-10-hydroxy-6,11,11-trimethyl-1,2,5,6-tetrahydro-4H-2,6-methano-benzo[d]azocin-3-yl]-methanone]: half-maximal inhibition (IC50) required 97 nM.
Next, `CNc1ccc(C(=O)N2CC[C@@]3(C)c4cccc(O)c4C[C@@H]2C3(C)C)cc1` [Example 48, [(2R,6S)-10-Hydroxy-6,11,11-trimethyl-1,2,5,6-tetrahydro-4H-2,6-methano-benzo[d]azocin-3-yl]-(4-methylamino-phenyl)-methanone]: 364 nM; `CC1(C)[C@H]2Cc3c(O)cccc3[C@]1(C)CCN2C(=O)c1ccc2[nH]ccc2c1` [Example 49, [(2R,6S)-10-Hydroxy-6,11,11-trimethyl-1,2,5,6-tetrahydro-4H-2,6-methano-benzo[d]azocin-3-yl]-(1H-indol-5-yl)-methanone]: 168 nM.
As to `COC(=O)c1ccc(C(=O)N2CC[C@@]3(C)c4cccc(O)c4C[C@@H]2C3(C)C)cc1` [Example 50, 4-[(2R,6S)-10-Hydroxy-6,11,11-trimethyl-1,2,5,6-tetrahydro-4H-2,6-methano-benzo[d]azocine-3-carbonyl]-benzoic acid methyl ester], the IC50 was 3000 nM.
`CC12CCN(C(=O)c3ccc4nc[nH]c4c3)C(Cc3ccc(O)cc31)C2` (stereo not drawn) [Example 51, (3H-Benzoimidazol-5-yl)-(8-hydroxy-6-methyl-1,2,5,6-tetrahydro-4H-2,6-methano-benzo[d]azocin-3-yl)-methanone] displayed a half-maximal inhibitory concentration (IC50) of 629 nM.
The figure for `C[C@@H]1[C@H]2Cc3ccc(O)cc3[C@]1(C)CCN2C(=O)c1ccc2nc[nH]c2c1` [Example 52, (3H-Benzoimidazol-5-yl)-[(2R,6R,11S)-8-hydroxy-6,11-dimethyl-1,2,5,6-tetrahydro-4H-2,6-methano-benzo[d]azocin-3-yl]-methanone] is 101 nM.
`C[C@H]1[C@@H]2Cc3ccc(O)cc3[C@@]1(C)CCN2C(=O)c1ccc2nc[nH]c2c1` [Example 53, (3H-Benzoimidazol-5-yl)-[(2S,6S,11R)-8-hydroxy-6,11-dimethyl-1,2,5,6-tetrahydro-4H-2,6-methano-benzo[d]azocin-3-yl]-methanone] registered a half-maximal inhibitory concentration (IC50) of 321 nM.
Compound `C[C@@H]1[C@@H]2Cc3ccc(O)cc3[C@@]1(C)CCN2C(=O)c1ccc2nc[nH]c2c1` [Example 54, (3H-Benzoimidazol-5-yl)-(8-hydroxy-6,11-dimethyl-1,2,5,6-tetrahydro-4H-2,6-methano-benzo[d]azocin-3-yl)-methanone] displayed an IC50 of 529 nM.
`O=C(c1ccc2nc[nH]c2c1)N1CCC2CC1Cc1ccc(O)cc12` (stereo not drawn) [Example 55, (3H-Benzoimidazol-5-yl)-(8-hydroxy-1,2,5,6-tetrahydro-4H-2,6-methano-benzo[d]azocin-3-yl)-methanone] showed an IC50 of 746 nM.
`CC1(C)C2Cc3ccc(O)cc3C1(O)CCN2C(=O)c1ccc2nc[nH]c2c1` (stereo not drawn) [Example 56, (3H-Benzoimidazol-5-yl)-(6,8-dihydroxy-11,11-dimethyl-1,2,5,6-tetrahydro-4H-4,6-methano-benzo[d]azocin-3-vl)-methanone] gave a half-inhibitory concentration (IC50) of 725 nM.
The compound `CC1(C)C2Cc3ccccc3C1(O)CCN2C(=O)c1ccc2nc[nH]c2c1` (stereo not drawn) [Example 57, (3H-Benzoimidazol-5-yl)-(6-hydroxy-11,11-dimethyl-1,2,5,6-tetrahydro-4H-2,6-methano-benzo[d]azocin-3-yl)-methanone] gave an IC50 of 137 nM.
The figure for `CC12CCN(C(=O)c3ccc4nc[nH]c4c3)C(Cc3ccc(O)cc31)C2(C)C` (stereo not drawn) [Example 58, (3H-Benzoimidazol-5-yl)-(8-hydroxy-6,11,11-trimethyl-1,2,5,6-tetrahydro-4H-2,6-methano-benzo[d]azocin-3-yl)-methanone] is 62 nM.
The figure for `CC12CCN(C(=O)c3ccc4nc[nH]c4c3)C(Cc3cc(O)ccc31)C2(C)C` (stereo not drawn) [Example 59, (3H-Benzoimidazol-5-yl)-(9-hydroxy-6,11,11-trimethyl-1,2,5,6-tetrahydro-4H-2,6-methano-benzo[d]azocin-3-yl)-methanone] is 36 nM; for `O=C(c1ccc2nc[nH]c2c1)N1CCC2CC1Cc1ccccc12` (stereo not drawn) [Example 60, (3H-Benzoimidazol-5-yl)-(1,2,5,6-tetrahydro-4H-2,6-methano-benzo[d]azocin-3-yl)-methanone] it is 228 nM; for `Cc1ccc2c(c1)C1(C)CCN(C(=O)c3ccc4nc[nH]c4c3)C(C2)C1(C)C` (stereo not drawn) [Example 69, (3H-Benzoimidazol-5-yl)-(6,8,11,11-tetramethyl-1,2,5,6-tetrahydro-4H-2,6-methano-benzo[d]azocin-3-yl)-methanone] it is 105 nM.
The figure for `CC12CCN(C(=O)c3ccc4nc[nH]c4c3)C(Cc3ccc(F)cc31)C2(C)C` (stereo not drawn) [Example 70, (3H-Benzoimidazol-5-yl)-(8-fluoro-6,11,11-trimethyl-1,2,5,6-tetrahydro-4H-2,6-methano-benzo[d]azocin-3-yl)-methanone] is 362 nM; for `COc1cc2c(cc1O)CC1N(C(=O)c3ccc4nc[nH]c4c3)CCC2(C)C1(C)C` (stereo not drawn) [Example 71, (3H-Benzoimidazol-5-yl)-(9-hydroxy-8-methoxy-6,11,11-trimethyl-1,2,5,6-tetrahydro-4H-2,6-methano-benzo[d]azocin-3-yl)-methanone] it is 47 nM.
In the case of `COc1cc2c(cc1OC)C1(C)CCN(C(=O)c3ccc4nc[nH]c4c3)C(C2)C1(C)C` (stereo not drawn) [Example 72, (3H-Benzoimidazol-5-yl)-(8,9-dimethoxy-6,11,11-trimethyl-1,2,5,6-tetrahydro-4H-2,6-methano-benzo[d]azocin-3-yl)-methanone], inhibition was half-maximal at 148 nM (IC50).
The figure for `COc1cc2c(cc1O)C1(C)CCN(C(=O)c3ccc4nc[nH]c4c3)C(C2)C1(C)C` (stereo not drawn) [Example 73, (3H-Benzoimidazol-5-yl)-(8-hydroxy-9-methoxy-6,11,11-trimethyl-1,2,5,6-tetrahydro-4H-2,6-methano-benzo[d]azocin-3-yl)-methanone] is 88 nM; for `COc1ccc2c(c1)C[C@H]1N(C(=O)c3ccc4nc[nH]c4c3)CC[C@]2(C)C1(C)C` [Example 74, (3H-Benzoimidazol-5-yl)-[(2R,6S)-9-methoxy-6,11,11-trimethyl-1,2,5,6-tetrahydro-4H-2,6-methano-benzo[d]azocin-3-yl]-methanone] it is 69 nM.
The figure for `CC12CCN(C(=O)c3ccc4nc[nH]c4c3)C(Cc3ccc(Cl)cc31)C2(C)C` (stereo not drawn) [Example 75, (3H-Benzoimidazol-5-yl)-(8-chloro-6,11,11-trimethyl-1,2,5,6-tetrahydro-4H-2,6-methano-benzo[d]azocin-3-yl)-methanone] is 395 nM.
The figure for `COc1cccc2c1C[C@H]1N(C(=O)c3ccc4nc[nH]c4c3)CC[C@]2(C)C1(C)C` [Example 76, (3H-Benzoimidazol-5-yl)-[(2R,6S)-10-methoxy-6,11,11-trimethyl-1,2,5,6-tetrahydro-4H-2,6-methano-benzo[d]azocin-3-yl]-methanone] is 166 nM; for `CC12CCN(C(=O)c3ccc4nc[nH]c4c3)C(Cc3cccc(O)c31)C2(C)C` (stereo not drawn) [Example 78, (3H-Benzoimidazol-5-yl)-(7-hydroxy-6,11,11-trimethyl-1,2,5,6-tetrahydro-4H-2,6-methano-benzo[d]azocin-3-yl)-methanone] it is 67 nM; for `CC1(C)[C@@H]2Cc3ccc(O)cc3[C@@]1(C)CCN2C(=O)c1ccc2nc[nH]c2c1` [Example 79, (3H-Benzoimidazol-5-yl)-[(2S,6R)-8-hydroxy-6,11,11-trimethyl-1,2,5,6-tetrahydro-4H-2,6-methano-benzo[d]azocin-3-yl]-methanone] it is 1370 nM.
In turn, `CC1(C)[C@H]2Cc3ccc(O)cc3[C@]1(C)CCN2C(=O)c1ccc2nc[nH]c2c1` [Example 80, (3H-Benzoimidazol-5-yl)-[(2R,6S)-8-hydroxy-6,11,11-trimethyl-1,2,5,6-tetrahydro-4H-2,6-methano-benzo[d]azocin-3-yl]-methanone] came in with a half-maximal inhibitory concentration (IC50) of 40 nM.

For the origin of these results see patent US8859580B2 (Boehringer Ingelheim International GmbH, priority 2007, dated 2014).
